Assay results from US7495023B2, “Thio semicarbazone and semicarbozone inhibitors of cysteine proteases and methods of their use” (The Regents of the University of California, priority 2002, dated 2009).
“Also recorded” adds a separate entry of the source. Read-outs that look alike come from different tables or passages of the source.

What was measured:
[1] = target: T. cruzi cathepsin L-like protease (cruzain) (Trypanosoma cruzi, UniProt P25779); assay: biochemical
Description: (§1) IC50 Determinations. Inhibitors were screened for effectiveness against the T. cruzi cathepsin L-like protease (cruzain) using purified recombinant protein. Cruzain (1 nM) was incubated with 20-50000 nM inhibitor in 100 mM sodium acetate-5 mM DTT buffer (pH 5.50, buffer A) for 5 min at room temperature. […] The increase in fluorescence (excitation at 355 nm and emission at 460 nm) was followed with an automated microtiter plate spectrofluorimeter (Molecular Devices, spectraMAX Gemini). Inhibitor stock solutions were prepared at 20 mM in DMSO, and serial dilutions were made in DMSO (0.7% DMSO in assay). Controls were performed using enzyme alone and enzyme with DMSO. IC50 values were determined graphically using inhibitor concentrations in the linear portion of a plot of inhibition versus log [I] (seven concentrations were tested, and at least two were in the linear range).

[2] = system: T. cruzi (Y strain); assay: Anti-trypanosomal cell culture assay, T. cruzi-infected J774 macrophages; type: cell-based; conditions: for effect on T. cruzi in cell culture (trypanocidal / trypanostatic / inactive): inhibitor 10 μM, cultures up to 30 days
Description: Drug Screening in Cell Culture. Mammalian cells are routinely cultured in RPMI-1640 medium supplemented with 5-10% heat-inactivated fetal calf serum (FCS) at 37° C. in 5% CO2. The Y strain of T. cruzi is maintained by serial passage in bovine embryo skeletal muscle (BESM) cells. Infectious trypomastigotes are collected from culture supernatants. For drug assays, J774 macrophages were irradiated (5000 rad) and plated onto six-well tissue culture plates 24 h prior to infection with ˜106 trypomastigotes/well. […] Inhibitor stocks (10 mM) in DMSO were stored at 4° C. J774 monolayers treated with a blank containing DMSO are used as a negative control, and monolayers treated with a known trypanocidal inhibitor, 10 μM N-methyl piperazine-Phe-homoPhe-vinyl sulfone phenyl (N-Pip-F-hF-VSPh) acted as a positive control (Engel et al., J. Exp. Med., 188:725-734 (1998)). RPMI medium with or without inhibitor is replaced every 48 h. Cultures are maintained for up to 30 days and monitored daily by contrast phase microscopy. […] The comparative effectiveness of each inhibitor was estimated from plots of the duration of the intracellular cycle of T. cruzi (days) in treated vs untreated control wells.

[3] = Solubility observations (cell culture medium, methanol); type: physicochemical
[4] = system: J774 macrophages; assay: Toxicity to mammalian host cells in the cell culture assay; type: cell-based
Description: Drug Screening in Cell Culture. Mammalian cells are routinely cultured in RPMI-1640 medium supplemented with 5-10% heat-inactivated fetal calf serum (FCS) at 37° C. in 5% CO2. The Y strain of T. cruzi is maintained by serial passage in bovine embryo skeletal muscle (BESM) cells. Infectious trypomastigotes are collected from culture supernatants. For drug assays, J774 macrophages were irradiated (5000 rad) and plated onto six-well tissue culture plates 24 h prior to infection with ˜106 trypomastigotes/well. Parasites are removed 2 h postinfection, and the medium is supplemented with the appropriate cysteine protease inhibitor (10 μM). Inhibitor stocks (10 mM) in DMSO were stored at 4° C. J774 monolayers treated with a blank containing DMSO are used as a negative control, and monolayers treated with a known trypanocidal inhibitor, 10 μM N-methyl piperazine-Phe-homoPhe-vinyl sulfone phenyl (N-Pip-F-hF-VSPh) acted as a positive control (Engel et al., J. Exp. Med., 188:725-734 (1998)). RPMI medium with or without inhibitor is replaced every 48 h. Cultures are maintained for up to 30 days and monitored daily by contrast phase microscopy. […] The comparative effectiveness of each inhibitor was estimated from plots of the duration of the intracellular cycle of T. cruzi (days) in treated vs untreated control wells.
The toxicity of compounds to mammalian host cells was also evaluated in the assay.

[5] = system: T. cruzi; conditions: mouse model; cited from earlier work
[6] = target: cruzain (Trypanosoma cruzi, UniProt P25779); type: biochemical; conditions: incubation 90 s to 24 h
Chain of cruzain (P25779 123-467): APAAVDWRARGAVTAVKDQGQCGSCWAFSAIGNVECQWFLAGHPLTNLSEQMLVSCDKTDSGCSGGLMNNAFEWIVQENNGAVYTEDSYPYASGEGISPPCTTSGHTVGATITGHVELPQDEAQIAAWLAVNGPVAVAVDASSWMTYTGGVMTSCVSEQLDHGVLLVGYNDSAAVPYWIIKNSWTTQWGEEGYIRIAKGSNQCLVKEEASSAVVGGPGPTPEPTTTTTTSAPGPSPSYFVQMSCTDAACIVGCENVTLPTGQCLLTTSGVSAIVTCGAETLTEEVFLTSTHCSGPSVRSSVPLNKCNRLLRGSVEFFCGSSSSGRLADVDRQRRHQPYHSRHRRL
Description: The time dependence of inhibition was determined by incubating cruzain with inhibitors, DMSO, or enzyme alone at room temperature for time points between 90 s and 24 h. The enzymatic activity was determined as above.
A known irreversible inhibitor, K002 (morpholino urea-Phe-homoPhe-vinyl sulfone benzene; Axys Pharmaceuticals Inc., South San Francisco, Calif.), and a known reversible covalent inhibitor, leupeptin, were used as controls for the thio semicarbazones.

[7] = system: T. cruzi; conditions: cited from earlier work
[8] = target: T1, falcipain-2 (Plasmodium falciparum, UniProt Q8I6U4); assay: Inhibition of falcipain-2; type: biochemical
T1 sequence (Q8I6U4 244-484): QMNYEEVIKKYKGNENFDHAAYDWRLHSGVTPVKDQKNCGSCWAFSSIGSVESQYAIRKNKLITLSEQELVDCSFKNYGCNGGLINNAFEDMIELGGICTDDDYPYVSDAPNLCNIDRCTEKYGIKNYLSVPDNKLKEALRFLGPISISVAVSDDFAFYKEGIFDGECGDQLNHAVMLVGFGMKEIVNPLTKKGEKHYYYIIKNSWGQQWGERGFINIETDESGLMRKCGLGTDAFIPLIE
From the text: (§2) Thio semicarbazones have been tested against falcipain 2, which is the cysteine protease of parasites related to malaria. […] The WHO (World Health Organization) helped to screen compound 1i against a couple of parasite strains. It has activity against T. cruzi and P. falciparum parasites.

[9] = target: human cathepsin B (Homo sapiens, UniProt P07858); assay: Inhibition of cathepsin B protease activity; type: biochemical
Description: as §1, with “protein.” for “protein. Cruzain (1 nM) was incubated with 20-50000 nM inhibitor in 100 mM sodium acetate-5 mM DTT buffer (pH 5.50, buffer A) for 5 min at room temperature.”
Enzyme assays to test the ability of thio semicarbazone compounds to inhibit the cysteine protease activity of rhodesain and cathepsin B were carried out as described for assays to test inhibition of protease activity by cruzain. In these assays, inhibition of cruzain is included as a positive control.

[10] = system: T. cruzi parasites; assay: WHO screen against T. cruzi parasites; type: cell-based
From the text: as §2

[11] = system: parasite P. falciparum; assay: WHO screen against P. falciparum parasites; type: cell-based
From the text: as §2

[12] = 5 min incubation, room temperature, pH 5.50, read-out: IC50 against cruzain

Chain of T. cruzi cathepsin L-like protease (cruzain) (P25779 123-467): as the sequence (P25779 123-467) above

CC1CN(C(N)=S)N=C1c1ccc(Cl)c(Cl)c1 (stereo not drawn) [Compound 4f, 3-(3,4-Dichlorophenyl)-4-methyl-2-pyrazoline-1-thiocarboxamide]
cruzain inhibitory activity, in words [1]: better than that of 1i | effect on T. cruzi in cell culture (trypanocidal / trypanostatic / inactive) [2]: trypanostatic | solubility in methanol, in words ([3]; methanol): poorest solubility in methanol

COc1ccccc1-c1ccc(C=NNC(N)=S)o1 [Compound 1c, 5-(2-Methoxyphenyl)-2-furancarboxaldehyde Thio Semicarbazone]
IC50 [1]: < 300 nM | melting point: 209.5 to 211.1 °C | toxicity to host cells, in words [4]: Toxicity

NC(=S)NN=Cc1ccc(-c2cccc(Cl)c2)o1 [Compound 1e, 5-(3-Chlorophenyl)-2-furancarboxaldehyde Thio Semicarbazone]
IC50 [1, 12]: < 300 nM | melting point: 198.8 to 199.8 °C | concentration at which toxicity to host cells was observed [4]: 10 µM | survival of infected host cells ([2]; compound at 5 μM, untreated infected cells die within 5 days): 10 days | effect on T. cruzi in cell culture (trypanocidal / trypanostatic / inactive) [2]: trypanostatic

CN1CCN(C(=O)NC(Cc2ccccc2)C(=O)NC(C=CS(=O)(=O)c2ccccc2)CCc2ccccc2)CC1 (stereo not drawn) [N-Pip-F-hF-VSPh, N-methyl piperazine-Phe-homoPhe-vinyl sulfone phenyl, reference compound]
effect on T. cruzi in cell culture (trypanocidal / trypanostatic / inactive) [2]: unable to survive | outcome of treatment of T. cruzi-infected mice [5]: resulted in a cure

CC1CN(C(N)=S)N=C1c1cccc(Br)c1 (stereo not drawn) [Compound 4b, 3-(3-Bromophenyl)-4-methyl-2-pyrazoline-1-thiocarboxamide]
cruzain inhibitory activity, in words [1]: better than that of 1i | IC50 [1, 12]: 80 nM | melting point: 107.4 to 109.9 °C | time dependence of cruzain inhibition [6]: time-dependent | effect on T. cruzi in cell culture (trypanocidal / trypanostatic / inactive) [2]: trypanocidal effect

NC(=S)NN=Cc1ccc(-c2ccc(Cl)cc2)o1 [Compound 1b, 5-(4-Chlorophenyl)-2-furancarboxaldehyde Thio Semicarbazone]
IC50 [1, 12]: < 300 nM | solubility in the cell culture medium, in words [3]: solubility (1b) appears to be a problem

benzyloxy-carbonyl-L-phenylalanyl L-alanine fluoromethyl ketone [Z-Phe-Ala-FMK]
effect on replication and differentiation of T. cruzi in cultures [7]: blocks replication and differentiation of the parasite

NC(=S)NN=Cc1ccc(-c2ccc(Br)cc2)o1 [Compound 1f, 5-(4-Bromophenyl)-2-furancarboxaldehyde Thio Semicarbazone]
IC50 [1, 12]: < 300 nM | survival of infected host cells / duration of trypanostatic effect ([2]; inhibitor 10 μM (method), untreated infected cells die within 5 days): 14 days | effect on T. cruzi in cell culture (trypanocidal / trypanostatic / inactive) [2]: trypanostatic | solubility in the cell culture medium, in words [3]: crystallized in the cell culture medium

CCC(=NNC(N)=S)c1ccc(Cl)c(Cl)c1 [Compound 2i, 3′,4′-Dichloropropiophenone Thio Semicarbazone]
cruzain inhibitory activity, in words [1]: better IC50 values than 1i | IC50 [1, 12]: 20 nM | increase in activity over 1i (cruzain) ([1]; compared to 1i): ~5 fold | IC50 [8]: 150 nM

O=C(N[C@H](/C=C/S(=O)(=O)c1ccccc1)CCc1ccccc1)[C@H](Cc1ccccc1)NC(=O)N1CCOCC1 [Compound K002, morpholino urea-Phe-homoPhe-vinyl sulfone benzene]
IC50 ([9]; read-out: cathepsin B IC50 (μM) 5 min preincubation, 5 min preincubation): 0.5 µM | IC50 ([9]; read-out: cathepsin B IC50 (μM) 30 min preincubation, 30 min preincubation): < 0.1 µM | time dependence of cruzain inhibition [6]: rapidly time-dependent

COc1ccc2ccccc2c1C=NNC(N)=S [Compound 1n, 2-Methoxy-1-naphthaldehyde Thio Semicarbazone]
IC50 [1, 12]: 560 nM | toxicity to host cells, in words [4]: Toxicity

CCC(=NNC(N)=S)c1cccc(Br)c1 [Compound 1i, 3′-Bromopropiophenone Thio Semicarbazone]
activity against T. cruzi parasites [10]: has activity | toxicity to host cells, in words [4]: without toxicity to host cells | time dependence of cruzain inhibition [6]: time-dependent | effect on T. cruzi in cell culture (trypanocidal / trypanostatic / inactive) [2]: significant trypanocidal activity; also recorded: cured of trypanosomal infection; also recorded: trypanocidal effect | time postinfection that cells stayed healthy and parasite-free ([2]; treated for three weeks, then compound removed, experiment terminated): ≥ 6.5 weeks | solubility in the cell culture medium, in words [3]: without toxicity to host cells or solubility problems | IC50 ([11]; Plasmodium falciparum): 16000 to 32000 nM | activity against P. falciparum parasites ([11]; WHO screen): has activity

CC(=NNC(N)=S)c1cccc(Br)c1 [Compound 3b, 3′-Bromoacetophenone Thio Semicarbazone]
IC50 [1, 12]: 200 nM | time dependence of cruzain inhibition [6]: time-dependent | effect on T. cruzi in cell culture (trypanocidal / trypanostatic / inactive) [2]: trypanocidal effect
